{
  "source": "patent US20210330741A1",
  "about": "“POLYPEPTIDE THERAPEUTICS AND USES THEREOF” (BOARD OF REGENTS, THE UNIVERSITY OF TEXAS SYSTEM, priority 2015, published 2021)",
  "type": "physicochemical",
  "experimental": "Formulation preparation—Lyophilized cake of the CSP 7 mer was prepared using lyophilization. Five hundred μg/mL of the CSP 7 mer solution was prepared as follows: the peptide powder was dissolved in DPBS with minimal volume of ammonium hydroxide (pH 7-8) and 1.5% w/v of mannitol was added in to the solution. The solution was sterile filtered using 0.2 μm SFCA sterile syringe filter (Corning Inc., Corning, N.Y.). Effect of filtration was also tested. One milliliter of the filtrate was filled into a borosilicate glass vial and lyophilized using a VirTis Advantage Lyophilizer (VirTis Company Inc., Gardiner, N.Y.). Lyophilization cycle parameters were set as outlined in Table 2. Primary drying time was varied by number of samples. Nebulization study of the CSP 7 mer peptide—Lyophilized peptide was reconstituted with sterile water for injection (500 μg/mL). […] The condensate of each sample was collected in a polypropylene tube and kept at 5° C. until analyzed. The amount of peptide in each sample was analyzed using high performance liquid chromatography (HPLC) and the degradation products was detected using liquid chromatography mass spectroscopy (LC/MS). Chromatographic conditions—Samples were analyzed using a Dionex 3000 high performance liquid chromatography (HPLC) system (Thermo Fisher Scientific, Fair Lawn, N.J.) with a wavelength of 220 nm. […]",
  "note": "Where no end group is shown, it is not given here.",
  "data": [
    {"substance": "FTTFTVT [CSP-7, FTTFTVT]", "values": [
      {"measurement": "percent recovery of the peptide (chemical assay, % of peptide remaining)", "value": "did not have an influence"}
    ]}
  ]
}
